US20160082133A1, “CHEMICAL EXCHANGE SATURATION TRANSFER (CEST) BASED MRI USING REPORTER GENES AND SUBSTRATES AND METHODS THEREOF” (The Johns Hopkins University, priority 2013, published 2016)
“And” between values parts separate entries of the source, which are not always exact repeats. Identical values can stand only once.

Legend:
[1] = CEST MRI of CDase substrates and products at 9.4 T; format: physicochemical; settings: pH 7.4, 37° C.
Text: All MR images were acquired with a 9.4T Bruker Avance system equipped with a 15 mm sawtooth RF coil. A modified RARE sequence (TR=6.0 sec, effective TE=43.2 ms, RARE factor=16, slice thickness=0.7 mm, FOV=14×14 mm, matrix size=128×64, resolution=0.11×0.22 mm^2, and NA=2) including a magnetization transfer (MT) module (one CW pulse, B=[…] (150 Hz), 3 sec) was used to acquire CEST-weighted images from −6 ppm to 6 ppm (step=0.2 ppm) around the water resonance (0 ppm). The absolute water resonant frequency shift was measured using a Water Saturation Shift Reference (WASSR) (Kim, M. et al. Magnetic Resonance in Medicine 2009, 61, 1441) method modified (Liu, G. et al. Contrast Media Mol Imaging 2010, 5, 162) with Lorentzian analysis. […]
Data processing was performed using custom-written scripts in MATLAB (Mathworks, Waltham, Mass.). CEST spectra were calculated from the mean of an ROI placed over each sample after B0 correction of the contrast on a per voxel basis. The CEST signal was quantified using MTRasym at specific offsets of interest (i.e., &ω=+2 ppm for cytosine or +2.4 ppm for 5FC) using the definition: MTRasym=(S^−˜ω−S^+″ω)/S0, where and s[−˜ω, +Aω] is the water signal intensity in the presence of a saturation pulse at offsets ±Aω, and S0 is water signal intensity in the absence of a saturation pulse.

[2] = Quantification of exchange rates (QUESP, Bloch equation fitting); format: physicochemical; settings: 11.7 T, pH 7.4, 37° C.; for kex, quantified exchange rates of imino and water protons: 5 ppm for 1-3, 6 ppm for dT
Description: Exchange rates were quantified with the saturation power dependent CEST approach (QUESP) and Bloch equation fitting (McMahon et al., Magn. Res. Med. 2006, 55, 836). For each sample, the MTRasym was measured at the imino resonance frequency for CEST saturation fields of 43, 85, 128, 170, 213, 255, 340, and 426 Hz while the saturation pulse duration was kept constant at 4000 ms. The Bloch equations were then fit numerically to these MTRasym values using MATLAB (Mathworks), and the exchange rates (kex, s^−1) were determined from the fits. Errors (95% confidence limits) were estimated using the F statistic.

[3] = In vitro CEST-MRI of thymidine analogues at 11.7 T; format: physicochemical; settings: pH 7.4, 37° C.; for MTRasym (8.5 Hz) / MTRasym (170 Hz) / MTRasym (213 Hz): at 5 ppm for 20 nM agent (so in the source); for MTRasym (128 Hz): at 5 ppm for 20 mM agent
Description: All compounds were dissolved at a concentration of 20 mM in phosphate-buffered saline (PBS) (pH=7.4) and placed in microcapillaries, as described previously.^17 CESTMRI experiments were performed on a vertical 11.7 T scanner (Bruker Avance system) at 37° C. A modified RARE sequence (TR/TE=10 000/9.4 ms; RARE factor=16; 1 mm slice thickness; FOV=11×11 mm^2; matrix size=64×32; resolution=0.17×0.34 mm^2; and NA=2) including a magnetization transfer (MT) module ([…]) was used to acquire CEST-weighted images from −8 to +8 ppm with increments of 0.2 ppm around the water resonance, which was assigned to be at 0 ppm. Pixel-based B0 correction was used as described before using the same parameters as above except for TR=1500 ms and B1/tsat=21 Hz/500 ms, with a sweep range from −2 to +2 ppm (0.1 ppm steps). Data processing was performed using custom-written scripts in MATLAB (Mathworks). Mean CEST spectra were plotted from an ROI for each sample, after B0 correction. MTRasym=100×(S^−Aω−S^AωA/^‘−’0)/3 was computed at different offsets Aω.

293^HSV1-tk cells = test: Cell viability assay (CellTiter-Blue); format: cell-based, human; settings: 0.5 mg/ml
Description: Cell viability assay was performed using CellTiter-Blue® Cell Viability Assay (Promega), which provides a fluorometric method for estimating the number of viable cells present in 96 well plate. HEK293FT cells transduced with the HSV1-tk (293^HSV1-tk) were plated in 96 well-plate (10,000 cells/well). Cells were incubated for a periods of 4 hours and 24 hours in the presence of ganciclovir (GCV, 0.5 mg/ml in cell medium), compound 2 (0.5 mg/ml in cell medium) and medium (as control). CellTiter-Blue® Reagent was added (20 μl/well) and plate was incubated for 3 hours at 37° C. Finally, fluorescence 560/590 nm was recorded and values obtained from probe containing wells (GCV or 2, N=4) were normalized to values of non-treated cells (control wells) to determine the % of viable cells after the incubation period.

[4] = CEST-MRI of LRRASLG and LRRApSLG peptides in PBS; format: physicochemical; settings: 1 mM, PBS pH 7.4, 11.7T
Description: Peptides were synthesized by NeoBioSci (Cambridge, Mass.) and provided as lyophilized powder. All compounds were dissolved in 10 mM PBS (pH 1/4 7.4) at the indicated concentration.
(§1) CEST MRI experiments were performed on a vertical 11.7T Bruker Avance system. Approximately […] of each sample was loaded into a capillary tube and up to 20 samples were scanned at each session to minimize variability as described before (Liu G et al., High-throughput screening of chemical exchange saturation transfer MR contrast agents. Contrast Media Mol Imaging 2010; 5:162-17). […] To account for inhomogeneity of the B0 field, the absolute water resonant frequency shift was measured using a modified water saturation shift reference method (Kim M et al., Water saturation shift referencing (WASSR) for chemical exchange saturation transfer (CEST) experiments. Magn Reson Med 2009; 61:1441-1450), using the same parameters as in CEST imaging except pulse repetition time 1/4 1.5 s, saturation pulse 1/4 500 ms, B1 1/4 […], and a sweep range from −2 to +2 ppm (step 1/4 0.1 ppm). […] After B0 correction for each voxel using the water saturation shift reference data, mean CEST-spectra were calculated from a region of interest (ROI) for each sample. […]

PKA = target: T1, PKA (Mus musculus, UniProt P05132); test: Phosphorylation assay with recombinant PKA read out by CEST MRI; format: biochemical; settings: 1 mM peptide
T1 construct: purchased New England Biolabs
Description: as §1, with “sample. The MTR asymmetry was quantified as MTRasym 1/4 (S^−Δω−S^+Δω)/S^0 (S^−Δω and S^+Δω are the water peak differentials due to saturation at the target frequency +ω and its negative −ω, respectively. S^0 is the unsaturated signal).” for “sample.”

HEK293 = test: CEST MRI of HEK293 cells expressing hPRM1 (lysate and encapsulated live cells); format: cell-based, Human
Description: CEST experiments were performed on an 11.7T Bruker Avance system, as previously described. A modified RARE (TR/TE=6000/9.4 ms), including a magnetization transfer module (B1=4.7 μT/4000 ms), was used to acquire CEST-weighted images. The absolute water resonant frequency shift was measured using a modified WASSR method, with the same parameters as in CEST imaging, except for TR=1.5 sec and a saturation pulse of B1=0.5 μT/250 ms, which was used for B0 correction for each voxel using MatLab. MTR asymmetry (MTRasym)=100×(S−Δω−S+Δω)/S0 was computed at different offsets, Δω. Human Embryonic Kidney cells (HEK293), were engineered to express the gene encoding to hPRM1 (NM_002761; 293^hPRM1). Non-expressing wild type cells (293^wt) were used as controls. The cells were lysed or encapsulated in alginate-based microcapsules using Ba^2+ ions as the gelating cation (Barnett, B. P., et al. Nat Protoc 6, 1142-1151 (2011)).

O=c1[nH]cc(F)c(=O)[nH]1 [5FU, 5-fluorouracil]
MTRasym (CEST contrast) [1]: only limited and non-frequency-specific MTRasym

CC1(O)C(=O)NC(=O)N([C@H]2C[C@H](O)[C@@H](CO)O2)C1O (stereo partly shown) [Compound 3, thymidine glycol]
kex of the imino proton [2]: 3.7±0.2×10^3 s^−1 and 5.1±0.7×10^3 s^−1 | kex, quantified exchange rates of imino and water protons [2]: 3.8 ± 0.2 ×10^3 s^−1 | MTRasym (8.5 Hz) [3]: 3% | MTRasym (170 Hz) [3]: 11% | MTRasym (213 Hz) [3]: 16% | MTRasym (128 Hz) [3]: 7%

O=c1[nH]c(=O)n([C@H]2C[C@H](O)[C@@H](CO)O2)cc1Cl [Compound 4, 5-chloro-2′-deoxyuridine]
CEST contrast from the imino proton [3]: No CEST contrast was observed

Nc1nc(O)c2ncn(COC(CO)CO)c2n1 [GCV, ganciclovir, reference compound]
toxic effect on 293^HSV1-tk cells (293^HSV1-tk cells; 4 and 24 hours): cytotoxic effect | cells killed (293^HSV1-tk cells; 24 hour, 293^HSV1-tk): about 50%

Cc1cn([C@H]2C[C@H](O)[C@@H](CO)O2)c(=O)[nH]c1=O [dT, Thymidine, reference compound]
kex of the imino proton [2]: 3.7±0.2×10^3 s^−1 | kex, quantified exchange rates of imino and water protons [2]: 5.1 ± 0.7 ×10^3 s^−1 | MTRasym (8.5 Hz) [3]: 2% | MTRasym (170 Hz) [3]: 10% | MTRasym (213 Hz) [3]: 15% | MTRasym (128 Hz) [3]: 5%

O=c1cc[nH]c(=O)[nH]1 [uracil]
MTRasym (CEST contrast) [1]: only limited and non-frequency-specific MTRasym

LRRASLG
CEST contrast of unphosphorylated versus phosphorylated peptide [4]: significantly higher contrast | decrease in CEST contrast on incubation with recombinant PKA (PKA; 4 mM ATP, 30° C.): > 50% | time in which the majority of the signal difference is generated (PKA; recombinant PKA): ≤ 15 min

hPRM1: arginine-rich protein human protamine-1 (NM_002761) expressed as CEST reporter (ARYRCCRSQSRSRYYRQRQRSRRRRRRSCQTRRRAMRCCRPRYRPRCRRH; UniProt P04553 2-51, looked up)
CEST contrast of encapsulated live cells compared to non-expressing wild type cells (HEK293; alginate microcapsules, 1.3 ppm and 3.6 ppm offsets): higher | CEST contrast of 293^hPRM1 lysate compared to wild type lysate (HEK293; cell lysate): significantly higher CEST contrast
